Where no end group is shown, it is not given here. [ ]: non-standard residue; d: D form. The star is where a group is joined. Biotin = O=C1N[C@H]2[C@H](CS[C@H]2CCCCC(=O)*)N1; F11 = C18-Glu-EG2-EG2-NHS; Aib = CC(C)(N)C(=O)O

The source of these data is patent US20240000803A1, “ORAL FORMULATION OF BIOLOGICALLY ACTIVE MATERIAL CONJUGATE HAVING BIOTIN MOIETY, FATTY ACID MOIETY, OR COMBINATION THEREOF COUPLED THERETO” (D&D Pharmatech Inc., priority 2020, published 2024).

Test system in the first test: not listed separately
Kind of test: Weight reduction and feed intake reduction over 24 hours after oral administration. The format is in vivo. The conditions noted are these: mice, formulation with sodium chenodeoxycholate and propyl gallate (Table 13). The method, then: Physiologically active substances bound to a biotin moiety, fatty acid moiety or a combination thereof, prepared in accordance with the above example, were formulated by dissolving in a vehicle (0.02% polysorbate 80 in 10 mM PBS (pH 7.4)) with the compositions of excipients shown in Table 13, then administered orally to mice. Weight reduction and feed intake reduction were measured over 24 hours.
“Conjugate 33: Polypeptide SEQ ID NO 24 (amylin derivative) with biotin moiety B38 at K1 (K(Biotin)CNTATCATQRLANFLVHSSNNFGPILPPTNVGSNTY; ends and bridges not checked)”: the “Weight loss compared to untreated group (%)” value (shortened to “Weight loss … (%)”) was −4.07 ± 1.30%.

Regarding “Conjugate 36: Polypeptide SEQ ID NO 26 (amylin derivative) with biotin moiety B38 at K1 (K(Biotin)CNTATCATQRLADFLRHSSPNFGAIPSSTNVGSRTY; ends and bridges not checked)”, the “Weight loss … (%)” value was −4.53 ± 0.86%.

For the substance “Conjugate 39: Polypeptide SEQ ID NO 28 (amylin derivative) with biotin moiety B38 at K1 (K(Biotin)CNTATCATQRLADFLRHSSNNFGAIPSSTNVGSRTY; ends and bridges not checked)”, the “Weight loss … (%)” value is −1.99 ± 0.94%.

For “Conjugate 61: Polypeptide SEQ ID NO 24 with biotin moiety B38 at K1 and fatty acid moiety F11 at K1 (KCNTATCATQRLANFLVHSSNNFGPILPPTNVGSNTY; not fully specified (residue 1); ends and bridges not checked; also: biotin B38 and fatty acid F11 both at K1, attachment sites not given here)”, the “Weight loss … (%)” value was −2.96 ± 4.22%.

For the substance “Conjugate 62: Polypeptide SEQ ID NO 26 with biotin moiety B38 at K1 and fatty acid moiety F11 at K1 (KCNTATCATQRLADFLRHSSPNFGAIPSSTNVGSRTY; not fully specified (residue 1); ends and bridges not checked; also: biotin B38 and fatty acid F11 both at K1, attachment sites not given here)”, the “Weight loss … (%)” value was −3.32 ± 1.31%.

As to “Conjugate 63: Polypeptide SEQ ID NO 28 with biotin moiety B38 at K1 and fatty acid moiety F11 at K1 (KCNTATCATQRLADFLRHSSNNFGAIPSSTNVGSRTY; not fully specified (residue 1); ends and bridges not checked; also: biotin B38 and fatty acid F11 both at K1, attachment sites not given here)”, the “Weight loss … (%)” value was −2.41 ± 0.78%.

With “Conjugate 64: Polypeptide SEQ ID NO 30 with biotin moiety B38 at K35 and fatty acid moiety F11 at K1 (RCNTATCATQRLADFLRHSSNNFGAIPSSTNVGSK(Biotin)TY; ends and bridges not checked; also: fatty acid F11 at K1, but residue 1 is R)”, the “Weight loss … (%)” value was −3.38 ± 1.26%.

With “Polypeptide SEQ ID NO: 24: amylin derivative KCNTATCATQRLANFLVHSSNNFGPILPPTNVGSNTY (Amylin derivative) [reference compound]”, the “Weight loss … (%)” value is on record as −2.63 ± 1.06%.

As for “Polypeptide SEQ ID NO: 26: amylin derivative KCNTATCATQRLADFLRHSSPNFGAIPSSTNVGSRTY (Amylin derivative) [reference compound]”, the “Weight loss … (%)” value was −3.13 ± 1.05%.

“Polypeptide SEQ ID NO: 28: amylin derivative KCNTATCATQRLADFLRHSSNNFGAIPSSTNVGSRTY (Amylin derivative) [reference compound]”: the “Weight loss … (%)” value is −1.11 ± 0.84%.

For “Polypeptide SEQ ID NO: 30: amylin derivative RCNTATCATQRLADFLRHSSNNFGAIPSSTNVGSKTY (Amylin derivative) [reference compound]”, the “Weight loss … (%)” value is −1.17 ± 0.76%.

The next test relates to glycated hemoglobin. As to the kind of experiment: Glycated hemoglobin change after oral administration once daily over 3 weeks (Conjugate 56). The format is in vivo. The following applies: mice, oral once daily 3 weeks, formulation with one bile acid and propyl gallate. The method, then: Physiologically active substances bound to a biotin moiety prepared in accordance with the above example were formulated by dissolving in a vehicle with the compositions of excipients shown in Table 23. These were orally administered to mice once daily over 3 weeks, and changes in glycated hemoglobin were measured.
“Conjugate 56: Polypeptide SEQ ID NO 40 (glucagon derivative) with biotin moiety B38 at K12 and fatty acid moiety F11 at K30 (H[Aib]QGTFTSDYSK(Biotin)YLDEQAAKEFVQWLMNTK(F11))”: the “glycated hemoglobin reduction effect” value is “exhibited a glycated hemoglobin reduction effect”.

Still in this test, the particulars now being: mice, oral once daily over 3 weeks, 1.343 mg/kg; sCDC 68 mg/kg, PG 34 mg/kg.
Consider “Conjugate 56: Polypeptide SEQ ID NO 40 (glucagon derivative) with biotin moiety B38 at K12 and fatty acid moiety F11 at K30 (H[Aib]QGTFTSDYSK(Biotin)YLDEQAAKEFVQWLMNTK(F11))”, for which the “ΔGlycated Hemoglobin” value is −0.47 ± 0.34%.

The same test, now with this note: mice, oral once daily over 3 weeks, 4.475 mg/kg; sCDC 68 mg/kg, PG 34 mg/kg.
For “Conjugate 56: Polypeptide SEQ ID NO 40 (glucagon derivative) with biotin moiety B38 at K12 and fatty acid moiety F11 at K30 (H[Aib]QGTFTSDYSK(Biotin)YLDEQAAKEFVQWLMNTK(F11))”, the “ΔGlycated Hemoglobin” value is on record as −0.98 ± 0.67%.
